The values that follow come from patent US9676714B2, “Sulfonylindole derivatives and method for preparing the same” (Daewoong Pharmaceutical Co., Ltd., priority 2013, dated 2017).

Counter-ions that a name gives are not always drawn.

The target of this experiment is T1, proton pump (H+/K+-ATPase) (Sus scrofa, UniProt P19156).
T1 construct: Gastric vesicles were prepared from hog stomach via centrifugal separation; from tissue; host or cells: hog stomach (gastric vesicles, method of Rabon et al. 1988)
T1 sequence (P19156 whole entry): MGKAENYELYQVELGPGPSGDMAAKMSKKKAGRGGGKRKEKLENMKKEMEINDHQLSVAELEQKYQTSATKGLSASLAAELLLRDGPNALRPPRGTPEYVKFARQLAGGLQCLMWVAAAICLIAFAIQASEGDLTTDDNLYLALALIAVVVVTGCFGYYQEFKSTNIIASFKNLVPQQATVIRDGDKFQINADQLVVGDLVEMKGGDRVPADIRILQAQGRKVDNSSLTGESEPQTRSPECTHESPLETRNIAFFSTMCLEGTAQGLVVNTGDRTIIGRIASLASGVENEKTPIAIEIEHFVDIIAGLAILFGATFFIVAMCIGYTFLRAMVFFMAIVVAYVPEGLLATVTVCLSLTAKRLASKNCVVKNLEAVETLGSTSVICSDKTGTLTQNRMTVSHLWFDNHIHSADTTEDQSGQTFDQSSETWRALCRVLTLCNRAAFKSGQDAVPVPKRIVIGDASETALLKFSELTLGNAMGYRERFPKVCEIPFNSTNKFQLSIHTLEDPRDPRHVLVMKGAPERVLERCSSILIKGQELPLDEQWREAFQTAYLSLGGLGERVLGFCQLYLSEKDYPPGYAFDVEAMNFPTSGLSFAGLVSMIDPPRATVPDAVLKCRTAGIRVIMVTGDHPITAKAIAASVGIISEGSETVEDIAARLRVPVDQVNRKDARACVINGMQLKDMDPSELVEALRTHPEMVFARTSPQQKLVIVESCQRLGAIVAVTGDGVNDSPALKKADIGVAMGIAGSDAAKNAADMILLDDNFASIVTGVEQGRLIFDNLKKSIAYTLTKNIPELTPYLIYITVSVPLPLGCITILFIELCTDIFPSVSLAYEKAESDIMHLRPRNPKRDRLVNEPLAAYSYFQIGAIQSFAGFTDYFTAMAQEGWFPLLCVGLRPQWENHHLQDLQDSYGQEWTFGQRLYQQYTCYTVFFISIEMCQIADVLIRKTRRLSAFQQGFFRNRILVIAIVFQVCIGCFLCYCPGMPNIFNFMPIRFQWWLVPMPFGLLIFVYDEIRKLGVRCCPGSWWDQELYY
T1 sequence (P18434 whole entry partner): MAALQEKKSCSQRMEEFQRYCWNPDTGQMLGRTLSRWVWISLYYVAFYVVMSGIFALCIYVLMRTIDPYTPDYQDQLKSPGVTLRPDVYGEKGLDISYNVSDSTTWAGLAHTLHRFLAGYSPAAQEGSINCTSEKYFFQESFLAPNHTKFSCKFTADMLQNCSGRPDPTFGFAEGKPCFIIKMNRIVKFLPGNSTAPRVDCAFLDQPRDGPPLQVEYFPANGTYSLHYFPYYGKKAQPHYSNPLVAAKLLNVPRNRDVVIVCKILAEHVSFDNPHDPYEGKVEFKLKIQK
The experiment can be described thus: Measurement of inhibitory effects on proton pump (H+/K+-ATPase) activities. Type of experiment: biochemical. Particulars: hog gastric vesicles, K+-specific H+/K+-ATPase activity, Tris-HCl buffer pH 7.4, 37° C. for 40 minutes, malachite green Pi readout. The essentials: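 Hog gastric vesicles in 60 mmol/l Tris-HCl pH 7.4 with 0.5% DMSO were treated with compounds at room temperature; reaction was started with 10 μl of 10 mmol/l ATP stock. Released Pi was read at 570 nm, K+-specific activity taken as the ±K+ difference. IC50 from 4-parameter logistic fit.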
Compound `CNCc1cn(S(=O)(=O)c2cccnc2)c2cc(-c3cncnc3)ccc12` [Example 258, N-methyl-1-(1-(pyridin-3-ylsulfonyll)-6-(pyrimidin-5-yl)-1H-indol-3-yl)methanamine hydrochloride] came in with an IC50 of 20 µM. The figure for `CNCc1cn(S(=O)(=O)c2cccnc2)c2cc(-c3cnc(OC)nc3)ccc12` [Example 259, 1-(6-(2-methoxypyrimidin-5-yl)-1-(pyridin-3-ylsulfonyl)-1H-indol-3-yl)-N-methylmethanamine hydrochloride] is 40 µM; for `CNCc1cn(S(=O)(=O)c2cccnc2)c2cc(N3CCCc4cc(C)ccc43)ccc12` [Example 260, N-methyl-1-(6-(6-methyl-3,4-dihydroquinolin-1(2H)-yl)-1-(pyridin-3-ylsulfonyl)-1H-indol-3-yl)methanamine hydrochloride] it is 0.38 µM; for `CNCc1cn(S(=O)(=O)c2cccc(OC(F)F)c2)c2cc(-c3cccnc3C(F)(F)F)ccc12` [Example 261, 1-(1-((3-(difluoromethoxy)phenyl)sulfonyl)-6-(2-(trifluoromethyl)pyridin-3-yl)-1H-indol-3-yl)-N-methylmethanamine hydrochloride] it is 9.24 µM. The figure for `CNCc1cn(S(=O)(=O)c2cccc(OC(F)F)c2)c2cc(-c3ccnc(F)c3)ccc12` [Example 262, 1-(1-((3-(difluoromethoxy)phenyl)sulfonyl)-6-(2-fluoropyridin-4-yl)-1H-indol-3-yl)-N-methylmethanamine hydrochloride] is 8.44 µM.

The compound `CNCc1cn(S(=O)(=O)c2cccc(OC(F)F)c2)c2cc(-c3cnc(F)c(C)c3)ccc12` [Example 263, 1-(1-((3-(difluoromethoxy)phenyl)sulfonyl)-6-(6-fluoro-5-methylpyridin-3-yl)-1H-indol-3-yl)-N-methylmethanamine hydrochloride] had an IC50 of 60 µM. The figure for `CNCc1cn(S(=O)(=O)c2cccc(OC(F)F)c2)c2cc(-c3cncnc3)ccc12` [Example 264, 1-(1-((3-(difluoromethoxy)phenyl)sulfonyl)-6-(pyrimidin-5-yl)-1H-indol-3-yl)-N-methylmethanamine hydrochloride] is 20 µM; for `CNCc1cn(S(=O)(=O)c2ccc(OC(F)F)cc2)c2cc(-c3cncnc3)ccc12` [Example 265, 1-(1-((4-(difluoromethoxy)phenyl)sulfonyl)-6-(pyrimidin-5-yl)-1H-indol-3-yl)-N-methylmethanamine hydrochloride] it is 40 µM; for `CNCc1cn(S(=O)(=O)c2cccc(OC(F)F)c2)c2cc(-c3cnc(OC)nc3)ccc12` [Example 266, 1-(1-((3-(difluoromethoxy)phenyl)sulfonyl)-6-(2-methoxypyrimidin-5-yl)-1H-indol-3-yl)-N-methylmethanamine hydrochloride] it is 45 µM. For the compound `CNCc1cn(S(=O)(=O)c2cccnc2)c2cc(Cc3ccccc3)ccc12` [Example 268, 1-(6-benzyl-(pyridin-3-ylsulfonyl)-1H-indol-3-yl)-N-methylmethanamine hydrochloride], the IC50 was found to be 0.76 µM. The figure for `CNCc1cn(S(=O)(=O)c2cccnc2)c2cc(Cc3ccccc3F)ccc12` [Example 269, 1-(6-(2-fluorobenzyl)-1-(pyridin-3-ylsulfonyl)-1H-indol-3-yl)-N-methylmethanamine hydrochloride] is 0.77 µM; for `CNCc1cn(S(=O)(=O)c2cccnc2)c2cc(Cc3ccc(OC(F)(F)F)cc3)ccc12` [Example 271, N-methyl-1-(1-(pyridin-3-ylsulfonyl)-6-(4-(trifluoromethoxy)benzyl)-1H-indol-3-yl)methanamine hydrochloride] it is 3.95 µM; for `CNCc1cn(S(=O)(=O)c2cccnc2)c2cc(Cc3ccc(Cl)cc3F)ccc12` [Example 274, 1-(6-(4-chloro-2-fluorobenzyl)-1-(pyridin-3-ylsulfonyl)-1H-indol-3-yl)-N-methylmethanamine hydrochloride] it is 1.17 µM.

As for `CNCc1cn(S(=O)(=O)c2cccnc2)c2cc(Cc3ccc(Cl)cc3C(F)(F)F)ccc12` [Example 275, 1-(6-(4-chloro-2-(trifluoromethyl)benzyl)-1-(pyridin-3-ylsulfonyl)-1H-indol-3-yl)-N-methylmethanamine hydrochloride], it took 1.76 µM to reach half-maximal inhibition (IC50). `CNCc1cn(S(=O)(=O)c2cccnc2)c2cc(Cc3ccc(C(F)(F)F)cc3Cl)ccc12` [Example 276, 1-(6-(2-chloro-4-(trifluoromethyl)benzyl)-1-(pyridin-3-ylsulfonyl)-1H-indol-3-yl)-N-methylmethanamine hydrochloride] had an IC50 of 0.67 µM. The figure for `CNCc1cn(S(=O)(=O)c2cccnc2)c2cc(Cc3ccc(OC)cc3F)ccc12` [Example 277, 1-(6-(2-fluoro-4-methoxybenzyl)-1-(pyridin-3-ylsulfonyl)-1H-indol-3-yl)-N-methylmethanamine hydrochloride] is 0.76 µM; for `CNCc1cn(S(=O)(=O)c2cccnc2)c2cc(Cc3ccc(OC(F)(F)F)cc3C)ccc12` [Example 278, N-methyl-1-(6-(2-methyl-4-(trifluoromethoxy)benzyl)-1-(pyridin-3-ylsulfonyl)-1H-indol-3-yl)methanamine hydrochloride] it is 1.97 µM; for `CNCc1cn(S(=O)(=O)c2cccnc2)c2cc(Cc3ccc(OC(F)(F)F)cc3F)ccc12` [Example 279, 1-(6-(2-fluoro-4-(trifluoromethoxy)benzyl)-1-(pyridin-3-ylsulfonyl)-1H-indol-3-yl)-N-methylmethanamine hydrochloride] it is 2.19 µM. The figure for `CNCc1cn(S(=O)(=O)c2cccnc2)c2cc(Cc3ccc(OC(F)(F)F)cc3Cl)ccc12` [Example 280, 1-(6-(2-chloro-4-(trifluoromethoxy)benzyl)-1-(pyridin-3-ylsulfonyl)-1H-indol-3-yl)-N-methylmethanamine hydrochloride] is 0.86 µM; for `CNCc1cn(S(=O)(=O)c2cccnc2)c2cc(Cc3ccc(OC(F)(F)F)cc3OC)ccc12` [Example 281, 1-(6-(2-methoxy-4-(trifluoromethoxy)benzyl)-1-(pyridin-3-ylsulfonyl)-1H-indol-3-yl)-N-methylmethanamine hydrochloride] it is 1.87 µM.

`CNCc1cn(S(=O)(=O)c2cccnc2)c2cc(Cc3cccnc3OC)ccc12` [Example 282, 1-(6-((2-methoxypyridin-3-yl)methyl)-1-(pyridin-3-ylsulfonyl)-1H-indol-3-yl)-N-methylmethanamine hydrochloride] came in with an IC50 of 2.92 µM. The figure for `CNCc1cn(S(=O)(=O)c2cccnc2)c2cc(Cc3ccc(C)nc3F)ccc12` [Example 283, 1-(6-((2-fluoro-6-methylpyridin-3-yl)methyl)-1-(pyridin-3-ylsulfonyl)-1H-indol-3-yl)-N-methylmethanamine hydrochloride] is 2.63 µM; for `CNCc1cn(S(=O)(=O)c2cccnc2)c2cc(Cc3ccc(C)nc3Cl)ccc12` [Example 284, 1-(6-((2-chloro-6-methylpyridin-3-yl)methyl)-1-(pyridin-3-ylsulfonyl)-1H-indol-3-yl)-N-methylmethanamine hydrochloride] it is 1.01 µM. The figure for `CNCc1cn(S(=O)(=O)c2cccnc2)c2cc(Cc3ccc(Cl)nc3Cl)ccc12` [Example 285, 1-(6-((2,6-dichloropyridin-3-yl)methyl)-1-(pyridin-3-ylsulfonyl)-1H-indol-3-yl)-N-methylmethanamine hydrochloride] is 0.65 µM; for `CNCc1cn(S(=O)(=O)c2cccc(F)c2)c2cc(Cc3ccc(C)c(F)c3F)ccc12` [Example 287, 1-(6-(2,3-difluoro-4-methylbenzyl)-1-((3-fluorophenyl)sulfonyl)-1H-indol-3-yl)-N-methylmethanamine] it is 1.67 µM. The figure for `CNCc1cn(S(=O)(=O)c2cccc(C(F)(F)F)c2)c2cc(Cc3ccc(C)c(F)c3F)ccc12` [Example 288, 1-(6-(2,3-difluoro-4-methylbenzyl)-1-((3-(trifluoromethyl)phenyl)sulfonyl)-1H-indol-3-yl)-N-methylmethanamine] is 1.45 µM. For `CNCc1cn(S(=O)(=O)c2cccc(OC)c2)c2cc(Cc3ccc(C)c(F)c3F)ccc12` [Example 289, 1-(6-(2,3-difluoro-4-methylbenzyl)-1-((3-methoxyphenyl)sulfonyl)-1H-indol-3-yl)-N-methylmethanamine], half-maximal inhibition (IC50) was put at 0.78 µM. The figure for `CNCc1cn(S(=O)(=O)c2cccc(OC(F)F)c2)c2cc(Cc3ccc(C)c(F)c3F)ccc12` [Example 290, 1-(6-(2,3-difluoro-4-methylbenzyl)-1-((3-(difluoromethoxy)phenyl)sulfonyl)-1H-indol-3-yl)-N-methylmethanamine] is 0.93 µM. The compound `CNCc1cn(S(=O)(=O)c2cccnc2)c2cc(Cc3ccc(OC)nc3Cl)ccc12` [Example 291, 1-(6-((2-chloro-6-methoxypyridin-3-yl)methyl)-1-(pyridin-3-ylsulfonyl)-1H-indol-3-yl)-N-methylmethanamine hydrochloride] yielded an IC50 of 0.66 µM. On to `CNCc1cn(S(=O)(=O)c2cccc(F)c2)c2cc(Cc3ccc(OC)nc3Cl)ccc12` [Example 292, 1-(6-((2-chloro-6-methoxypyridin-3-yl)methyl)-1-((3-fluorophenyl)sulfonyl)-1H-indol-3-yl)-N-methylmethanamine hydrochloride], for which half-maximal inhibition (IC50) was put at 0.64 µM. The figure for `CNCc1cn(S(=O)(=O)c2cccc(Cl)c2)c2cc(Cc3ccc(OC)nc3Cl)ccc12` [Example 293, 1-(6-((2-chloro-6-methoxypyridin-3-yl)methyl)-1-((3-chlorophenyl)sulfonyl)-1H-indol-3-yl)-N-methylmethanamine] is 0.55 µM.
